Measured values from patent publication US5061691A, “Enkephalin analogs” (Kabushiki Kaisha Vitamin Kenkyuso, priority 1987, dated 1991).
Where two headings read alike, the source gives them in different places. Peptide text beside a SMILES is read from it.

How the values were obtained:
mouse vas deferens (MVD) [1] = molecular target: T1, mouse vas deferens (MVD) (Mus musculus, UniProt P32300); type: cell-based
mouse vas deferens (MVD) [2] = molecular target: T1, mouse vas deferens (MVD); conditions: cited from earlier work
μ and δ opiate receptors = conditions: Lutz et al., Eur. J. Pharmacol. 111, 257 (1985); cited from earlier work
guinea pig ileum (GPI) = guinea pig ileum (GPI) (Cavia porcellus, UniProt P97266); conditions: value from Shimohigashi et al., Peptide Chemistry 1985 p. 51 (1986); cited from earlier work
[3] = i.c.v. or i.v. administration; cited from earlier work

T1 sequence (P32300 whole entry): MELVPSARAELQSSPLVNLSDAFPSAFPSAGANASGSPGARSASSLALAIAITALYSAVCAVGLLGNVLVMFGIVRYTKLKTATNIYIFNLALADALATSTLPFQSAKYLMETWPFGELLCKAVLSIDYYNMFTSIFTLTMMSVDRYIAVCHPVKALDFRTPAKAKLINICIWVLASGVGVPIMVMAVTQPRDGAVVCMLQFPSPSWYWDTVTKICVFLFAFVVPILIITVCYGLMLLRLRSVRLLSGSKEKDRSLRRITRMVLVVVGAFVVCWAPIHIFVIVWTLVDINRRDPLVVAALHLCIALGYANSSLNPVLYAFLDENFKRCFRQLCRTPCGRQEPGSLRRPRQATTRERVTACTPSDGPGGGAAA
Sequence of guinea pig ileum (GPI) (P97266 whole entry): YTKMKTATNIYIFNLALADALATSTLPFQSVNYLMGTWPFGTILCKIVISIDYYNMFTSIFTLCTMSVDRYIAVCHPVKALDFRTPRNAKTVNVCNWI

NC(=O)[C@@H]1CCCN1C(=O)[C@H](Cc1ccccc1)NC(=O)[C@@H]1CCCN1C(=O)[C@@H](N)Cc1ccc(O)cc1 [Morphiceptin, H--Tyr--Pro--Phe--Pro--NH2] (H-YPFP-NH2)
Activity ratio MVD/GPI (mouse vas deferens (MVD) [1]): 5.7

(H--Tyr--D--Ala--Gly--NH--CH2 --)2 [DTRE2]
opiate activity and selectivity in bioassays (GPI and MVD assays) (mouse vas deferens (MVD) [2]; GPI and MVD bioassays, Shimohigashi et al. (1986)): morphine-like activities and greater selectivity for μ than for δ
Activity ratio MVD/GPI (mouse vas deferens (MVD) [2]; ratio of IC50, from Shimohigashi et al., Peptide Chemistry 1985 p. 51 (1986)): 6.1
IC50 (mouse vas deferens (MVD) [2]; value from Shimohigashi et al., Peptide Chemistry 1985 p. 51 (1986)): 2700 nM
selectivity for μ than for δ in receptor binding assay (μ and δ opiate receptors): about 400 fold
IC50 (guinea pig ileum (GPI)): 440 nM

β -Endorphin: consists of 31 amino acid residues and is a fragment of β -lipotropin (YGGFMTSEKSQTPLVTLFKNAIIKNAYKKGE; Beta-endorphin; UniProt P01189 237-267, looked up)
analgesic activity [3]: marked and long-lived analgesic activity
